In assay [1] the test system is acute myocardial infarction in rats. Put plainly: Acute myocardial infarction in rats by coronary artery (LAD) ligature: myocardial infarction rate (MIR). Conditions: intragastric pre-administration 7 d (Y 4.5, G 115, F 84 mg/kg). Format: in vivo, SD male rats.
Description: (§1) SD male rats, weighing 340˜360 g, were purchased from Beijing Weitonglihua Experimental Animal Co., Ltd, and certification No.: SCXK (Jing) 2007-0001.
(§2) Grouping: the rats were randomly divided into groups according to their body weight: S group (Sham operation group), M group (Model group), Y group (Positive control group, metoprolol tartrate, Lot No. 1201039), F group (CSMDP of the present invention) and G group (CSDP available in China, Lot No. 2011L16); 10 rats in each group.
On the 8th day, the rats were anesthetized intraperitoneally with 10% chloral hydrate (3 ml/kg) and fixed on a small wood plate in a supine position. Pins were inserted under the skin of the right forelimb and both hind limbs, and then the rats were connected with the MedLab-U/8c bio-signals collecting-processing system to record ECG of the rats. Hair on the front wall of the left chest was clipped. Oral tracheal cannula was performed and the animal respirator was connected at a respiratory frequency of 80 breaths/min, tidal volume 3 ml/100 g and I:E=1:1. Chest on the left front chest lateral side was incised to cut the 3′ rib and the pericardium was carefully lifted with forceps to tear apart. […] ECG was recorded continuously for 4 hours. […]
Assay [2] concerns heart rate in rats with myocardial infarction. Kind of assay: Heart rate (ECG) in rats with myocardial infarction after ligation. Conditions: 7 d pre-administration. Format: in vivo, SD male rats.
Description: as §1, §2
On the 8th day, the rats were anesthetized intraperitoneally with 10% chloral hydrate (3 ml/kg) and fixed on a small wood plate in a supine position. Pins were inserted under the skin of the right forelimb and both hind limbs, and then the rats were connected with the MedLab-U/8c bio-signals collecting-processing system to record ECG of the rats. Hair on the front wall of the left chest was clipped. Oral tracheal cannula was performed and the animal respirator was connected at a respiratory frequency of 80 breaths/min, tidal volume 3 ml/100 g and I:E=1:1. Chest on the left front chest lateral side was incised to cut the 3′ rib and the pericardium was carefully lifted with forceps to tear apart. […] Medical suture (4-0) was used to transfix LAD and a small amount of myocardial tissue at a distance of about 1˜2 mm from the lower edge of the left atrial appendage and inside interventricular sulcus in the vicinity of the left main trunk of coronary vein. The rats with an elevated J point by 0.1 mV in ECG and pale LVAW (left ventricular anterior wall) indicated a successful modeling. Chest was closed layer by layer. The tracheal tube was removed until the voluntary respiration was recovered in the rats. ECG was recorded continuously for 4 hours.

Structures can show the parent of a compound that is named as a salt.

With `COCCc1ccc(OCC(O)CNC(C)C)cc1` (stereo not drawn) [Y group, metoprolol tartrate], the “Average wet weight of the infarction region” value in assay [1] (LAD ligation on 8th day, heart taken after 4 h ECG) worked out at 0.0233 ± 0.0038 g. In addition, the “MIR (myocardial infarction rate = wet weight of the infarction region/wet weight of the whole heart x 100%)” value in assay [1] (LAD ligation, model group 5.07 ± 0.75) turned out to be 2.65 ± 0.33 %. For the same compound, the heart rate in assay [2] (0 s after ligation) is 377 ± 48 beat/min; in assay [2] (5 s after ligation), 423 ± 39 beat/min; in assay [2] (10 s after ligation), 419 ± 41 beat/min; in assay [2] (5 min after ligation) it was 424 ± 29 beat/min; in assay [2] (10 min after ligation), 431 ± 17 beat/min; in assay [2] (30 min after ligation) it was 413 ± 34 beat/min. Besides, the heart rate in assay [2] (1 h after ligation) is 421 ± 47 beat/min; in assay [2] (2 h after ligation) it was 416 ± 33 beat/min; in assay [2] (3 h after ligation), 380 ± 66 beat/min; in assay [2] (4 h after ligation), 395 ± 52 beat/min.

The values above are taken from patent US11013694B2, “Formulation of a micro drop pill and the preparation method thereof” (TASLY PHARMACEUTICAL GROUP CO., LTD., priority 2013, dated 2021).
